The nature of series [1]: Encapsulation rate of lipid nanoparticles (Ribogreen). In kind it is physicochemical. On the procedure:
The encapsulation rate of the lipid nanoparticles was calculated by measuring the amount of encapsulated nucleic acid (the amount of ssODN in the case of RNP-ssODN) using an RNA intercalator Ribogreen (manufactured by Life Technologies).

The nature of series [2]: Average particle diameter, PdI and zeta potential of lipid nanoparticles (dynamic light scattering). In kind it is physicochemical. Here is the method: The mean particle diameter (number average value), ζ-mean particle diameter, and polydispersity index (PdI) of the lipid nanoparticles in PBS(−) (pH 7.4), as well as the zeta potential in 10 mM HEPES buffer (pH 7.4), were measured using an analyzing device, Zetasizer Nano ZS ZEN3600 (Malvern), which utilizes dynamic light scattering.

Series [3] has as its system BALB/c mice. Briefly: Measurement of Fluc activity in tissues after iv Fluc mRNA-loaded lipid nanoparticles. In kind it is in vivo, mouse. Conditions: Example 1, FIG. 1; Fluc mRNA-loaded LNP 50/10/40/1.5; Balb/c mice iv 0.01 mg mRNA/kg, 6 hours. Here is the method:
First, lipid nanoparticles encapsulating Fluc mRNA (Fluc mRNA-loaded lipid nanoparticles) were intravenously injected into BALB/c mice (female, 4 weeks old) at a dose of 0.01 mg mRNA/kg body weight. Six hours after intravenous injection, the mice were euthanized, and each tissue was collected, frozen in liquid nitrogen, and stored at −80° C. The tissues were homogenized in passive lysis buffer (Promega) using a bead cell disrupter (Micro Smash MS-100R, TOMY Seiko). Tissue debris was removed by centrifugation and the supernatant was collected. Fluc activity in the supernatant was measured using a luciferase assay system (E1500, Promega) according to the manufacturer's protocol. Luminescence was measured using a luminometer (Luminescencer-PSN, ATTO). The protein concentration was determined using a commercially available measurement kit (BCA Protein Assay Kit, Pierce). Fluc activity was expressed as relative light units (RLU) per mg of protein.

The test system of series [4] is TTR gene. In words: Measurement of TTR-KO activity (serum TTR protein, ELISA). The series is classed as in vivo, mouse. The note with it: FIG. 5; TTR-RNP-ssODN-loaded LNP; mouse serum 7 days after administration. A digest of the protocol: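 Female BALB/c mice (4 weeks) received Cas9/sgTTR-RNP-loaded lipid nanoparticles i.v. at the indicated doses. Serum TTR protein measured by ELISA one week later. TTR-KO activity expressed as serum TTR (%) relative to untreated mice set at 100%.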
In general terms: An ELISA detects its analyte on a solid surface through an enzyme-linked reagent.

Series [5] is described as follows: pKa of lipid nanoparticles (TNS). The note with it: apparent pKa of Fluc mRNA-loaded LNP; 50/10/40/1.5 mol%; Table 5.
Procedure: The pKa of the lipid nanoparticles was measured using p-Toluenesulfonic acid (TNS). First, TNS (final concentration: 0.75 μM) and lipid nanoparticles (final concentration: 30 μM) were mixed in buffer solutions (200 mL) adjusted to various pH values (pH 3.5 to 9.5). The buffer solutions used were: 20 mM citrate buffer solution, 20 mM sodium phosphate buffer solution, or 20 mM Tris-HCl buffer solution containing 130 mM NaCl. The fluorescence intensity of the prepared mixture was measured using a spectrofluorometer (VarioskanLux, Thermo Fisher Scientific) at the setting of λex=321 nm and λem=447 nm. The highest and lowest measured values were taken as 100% and 0% charge rate, respectively, and the pH showing a 50% charge rate was calculated as the apparent pKa. The percentage of the contained cationically charged pH-sensitive cationic lipid was calculated using the Henderson-Hasselbalch equation.
[6] abbreviates: Fluc mRNA-loaded LNP, cationic lipid/DSPC/cholesterol/PEG-DMG 50/10/40/1.5 mol%, Table 5.
Setting [7] is: TTR-RNP-ssODN-loaded LNP (ssODN-TTR_3-40%), cationic lipid/DSPC/cholesterol/PEG-DMG 50/10/40/3.5 mol%, Table 8.

Each structure is given as a SMILES string.

Usually pKa stands for the pH at which an ionisable group is half protonated. Turning to `CCCCCC(CCCCC)CC(=O)OCCCCCCC(O)(CCCCCCOC(=O)CC(CCCCC)CCCCC)CCCCN(CCC)CCC` [CL4F8-b-5, 7-(4-(dipropylamino)butyl)-7-hydroxytridecane-1,13-diylbis(3-pentyloctanoate)], the Encapsulation rate in series [1] (setting [6]) is given as 91.0%. In addition, in series [1] (setting [7]), the Encapsulation rate came to 60.2%. In series [2] (setting [6]), the Number-average particle diameter is recorded as 68.7 nm, the PdI was determined as 0.185, the ζ-average is 106.3 nm and the ζ-potential is −5.16 mV. In addition, in series [2] (setting [7]), the Number-average particle diameter came out at 127.5 nm, the PdI turned out to be 0.128, the ζ-average came out at 178.0 nm and the ζ-potential was −0.95 mV. In addition, the “Fluc activity (gene transfer ability) in liver and spleen” value in series [3] is reported as “equal to or greater than that of CL4F6”. Further, the “serum TTR activity / gene knockout versus CL4F6” value in series [4] is “lower serum TTR activity and higher gene knockout”. Further, in series [5], the pKa stood at 6.25.

The record behind these values is US20250205362A1, “LIPID NANOPARTICLES” (NATIONAL UNIVERSITY CORPORATION HOKKAIDO UNIVERSITY, priority 2022, published 2025).
